Measured values from patent US10035814B2, “Guanine analogs as telomerase substrates and telomere length affectors” (Geron Corporation, priority 2011, dated 2018).
Values joined by “and” are separate entries in the source; they are usually repeats but may differ in a detail not shown here. Identical values can stand only once.

What was measured:
telomerase = telomerase (Homo sapiens (Human), UniProt O14746); assay: Primer extension assay for telomerase activity; type: biochemical; conditions: for EC50: read-out: Primer Ext. Assay EC50
Chain of telomerase (O14746 whole entry): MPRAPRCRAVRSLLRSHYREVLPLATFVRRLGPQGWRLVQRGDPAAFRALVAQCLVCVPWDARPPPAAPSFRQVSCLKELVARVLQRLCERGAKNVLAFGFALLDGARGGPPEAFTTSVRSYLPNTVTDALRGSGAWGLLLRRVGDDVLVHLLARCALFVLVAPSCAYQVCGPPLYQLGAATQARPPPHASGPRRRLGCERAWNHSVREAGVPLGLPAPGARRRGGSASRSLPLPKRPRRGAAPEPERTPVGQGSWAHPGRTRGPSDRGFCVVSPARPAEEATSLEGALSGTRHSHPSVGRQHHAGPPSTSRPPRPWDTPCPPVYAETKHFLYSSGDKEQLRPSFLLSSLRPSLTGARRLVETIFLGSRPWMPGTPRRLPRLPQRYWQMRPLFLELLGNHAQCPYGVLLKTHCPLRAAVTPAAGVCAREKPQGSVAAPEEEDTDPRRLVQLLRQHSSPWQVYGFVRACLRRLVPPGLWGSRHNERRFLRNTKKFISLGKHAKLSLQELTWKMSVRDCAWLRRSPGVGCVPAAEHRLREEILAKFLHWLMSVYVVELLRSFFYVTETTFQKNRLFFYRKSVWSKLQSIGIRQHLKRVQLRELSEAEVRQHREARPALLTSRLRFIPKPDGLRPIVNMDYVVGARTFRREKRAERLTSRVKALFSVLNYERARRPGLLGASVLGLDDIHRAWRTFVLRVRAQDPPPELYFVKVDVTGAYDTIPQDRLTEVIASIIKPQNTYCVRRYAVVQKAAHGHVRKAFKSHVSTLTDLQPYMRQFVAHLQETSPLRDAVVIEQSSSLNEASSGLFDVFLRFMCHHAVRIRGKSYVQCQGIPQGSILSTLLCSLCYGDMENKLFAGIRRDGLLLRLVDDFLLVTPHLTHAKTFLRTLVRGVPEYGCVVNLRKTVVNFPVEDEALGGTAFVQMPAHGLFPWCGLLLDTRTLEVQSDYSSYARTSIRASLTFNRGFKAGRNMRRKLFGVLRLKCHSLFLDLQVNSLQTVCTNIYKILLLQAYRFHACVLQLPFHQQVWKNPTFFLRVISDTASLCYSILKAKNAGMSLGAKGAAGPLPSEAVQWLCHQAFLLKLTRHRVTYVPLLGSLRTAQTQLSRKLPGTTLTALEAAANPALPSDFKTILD
Procedure: Purified human telomerase was incubated with d(TTAGGG)3 (SEQ ID NO: 1) and deoxy-nucleoside triphosphates for 90 minutes at 37° C. All reactions were done in the presence of 200 dTTP and 10 μM dATP (50,000 cpm/pmol a-^33P-dATP). Activity was determined by incubating affinity purified telomerase extract with 1 μM primer [d(TTAGGG)3] (SEQ ID NO: 1), 200 μM dTTP, 50 μM dGTP, 10 μM dATP, 10 μCi [α-^33P]dATP (2000-4000 Ci/mmol) in a buffer containing 50 mM (N-2-hydroxyethyl piperazine-N′-3 propanesulfonic acid)-NaOH pH 8.5, 1 mM MgCl2, 1 mM DTT, 5% glycerol, 0.5 mM EGTA and 100 mM KOAc in a final reaction volume of 40 μl. Primer extension products were analyzed on a 15% polyacrylamide gel containing 7 M urea. A characteristic telomerase ladder has multiple bands. If a compound is not a substrate then (TTAGGG)3TTA (21 nt) (SEQ ID NO: 2). If a compound is a chain terminator then (TTAGGG)3TTAG* (22 nt) (SEQ ID NO: 3).
Purified human telomerase was incubated with d(TTAGGG)3 (SEQ ID NO: 1) and deoxy-nucleoside triphosphates for 90 minutes at 37° C. All reactions were done in the presence of 200 dTTP and 10 μM dATP (50,000 cpm/pmol a-^33P-dATP). Activity was determined by incubating affinity purified telomerase extract with […] primer [d(TTAGGG)3] (SEQ ID NO: 1), […] [α-^33P]dATP (2000-4000 Ci/mmol) in a buffer containing 50 mM (N-2-hydroxyethyl piperazine-N′-3 propanesulfonic acid)-NaOH pH 8.5, 1 mM MgCl2, 1 mM DTT, 5% glycerol, 0.5 mM EGTA and 100 mM KOAc in a final reaction volume of 40 μl. Primer extension products were analyzed on a 15% polyacrylamide gel containing 7 M urea. A characteristic telomerase ladder has multiple bands. If a compound is not a substrate then (TTAGGG)3TTA (21 nt) (SEQ ID NO: 2). If a compound is a chain terminator then (TTAGGG)3TTAG* (22 nt) (SEQ ID NO: 3).

telomerase in HT3 cells = telomerase in HT3 cells (Homo sapiens (Human), UniProt O14746); assay: Ex vivo TRAP assay in HT3 cells; type: cell-based; conditions: HT3 cells; for EC50: 3 days, read-out: ExVivo TRAP EC50 (μM)- 3 Day Assay
Chain of telomerase in HT3 cells (O14746 whole entry): as above
Chain of telomerase in HT3 cells (O60832 whole entry partner): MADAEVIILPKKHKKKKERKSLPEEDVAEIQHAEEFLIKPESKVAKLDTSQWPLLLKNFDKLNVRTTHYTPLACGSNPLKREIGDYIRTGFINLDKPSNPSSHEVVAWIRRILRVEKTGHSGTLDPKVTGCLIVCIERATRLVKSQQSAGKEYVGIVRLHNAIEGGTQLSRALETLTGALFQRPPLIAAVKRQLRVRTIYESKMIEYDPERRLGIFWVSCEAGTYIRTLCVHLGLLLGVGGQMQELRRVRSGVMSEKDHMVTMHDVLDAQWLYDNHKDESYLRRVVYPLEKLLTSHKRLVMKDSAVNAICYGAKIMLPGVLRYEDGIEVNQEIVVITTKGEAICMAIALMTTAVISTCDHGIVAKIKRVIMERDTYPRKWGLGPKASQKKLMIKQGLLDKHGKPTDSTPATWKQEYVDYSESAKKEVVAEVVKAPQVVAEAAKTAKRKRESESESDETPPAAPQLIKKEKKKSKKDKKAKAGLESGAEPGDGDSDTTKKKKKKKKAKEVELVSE
Chain of telomerase in HT3 cells (Q9NX24 whole entry partner): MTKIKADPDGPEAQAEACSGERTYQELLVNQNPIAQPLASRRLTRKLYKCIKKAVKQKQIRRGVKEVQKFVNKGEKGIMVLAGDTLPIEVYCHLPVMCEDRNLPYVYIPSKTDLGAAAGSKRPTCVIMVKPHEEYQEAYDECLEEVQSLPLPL
Chain of telomerase in HT3 cells (Q9NPE3 whole entry partner): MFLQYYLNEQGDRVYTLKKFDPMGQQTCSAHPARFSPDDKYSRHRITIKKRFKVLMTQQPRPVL
Chain of telomerase in HT3 cells (Q9NY12 whole entry partner): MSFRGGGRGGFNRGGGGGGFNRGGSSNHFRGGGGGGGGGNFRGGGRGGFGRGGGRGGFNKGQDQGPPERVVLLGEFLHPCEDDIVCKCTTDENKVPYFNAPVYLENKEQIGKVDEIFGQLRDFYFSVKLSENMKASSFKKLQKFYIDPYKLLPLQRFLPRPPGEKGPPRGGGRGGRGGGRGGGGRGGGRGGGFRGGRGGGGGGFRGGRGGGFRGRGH
Chain of telomerase in HT3 cells (Q9BUR4 whole entry partner): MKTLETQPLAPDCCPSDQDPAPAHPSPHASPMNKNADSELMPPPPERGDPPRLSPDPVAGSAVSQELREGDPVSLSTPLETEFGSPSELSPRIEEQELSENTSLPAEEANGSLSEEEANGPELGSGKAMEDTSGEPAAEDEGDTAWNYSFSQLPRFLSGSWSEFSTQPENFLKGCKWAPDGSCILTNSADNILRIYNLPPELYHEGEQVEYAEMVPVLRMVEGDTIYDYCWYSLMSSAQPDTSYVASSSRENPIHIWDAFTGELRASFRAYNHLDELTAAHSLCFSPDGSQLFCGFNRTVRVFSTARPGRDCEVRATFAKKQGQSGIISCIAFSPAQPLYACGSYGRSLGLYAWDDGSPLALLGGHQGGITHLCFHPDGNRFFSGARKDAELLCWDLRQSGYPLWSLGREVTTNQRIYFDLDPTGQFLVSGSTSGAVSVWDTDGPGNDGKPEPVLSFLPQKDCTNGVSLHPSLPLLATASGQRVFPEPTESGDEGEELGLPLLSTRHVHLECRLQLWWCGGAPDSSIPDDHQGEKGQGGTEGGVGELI
Procedure: HT3 cells were treated for three days with increasing concentrations of PMPG-diisopropyloxy ester ranging from 0.2 μM to 20 μM. Cells (HT3 RPMI+10% PBS) were incubated with compound for 24 hr after which PSTS primer (phosphorothioate-d(AATCCGTCGAGCAGAGTT (SEQ ID NO: 6) containing a 5′ Cy-5 label) (7.5 μM) and fresh compound are added for an additional 24 hr. Cells were lysed and endogenous telomerase inactivated by heating (15 min, 75° C.). Products were amplified by 30 cycles of PCR under TRAP conditions set forth above and quantified. The results of two independent experiments are shown in Table 4.
HT3 cells were treated for three days with increasing concentrations of one or more of the indicated compounds ranging from 0.2 μM to 20 μM. Cells (HT3 RPMI+10% FBS) were incubated with compound for 24 hours, after which PSTS primer (phosphorothioate-d AATCCGTCGAGCAGAGTT (SEQ ID NO: 6) containing a 5′ Cy-5 label) (7.5 μM) and fresh compound were added for an additional 24 hours. Cells were lysed and endogenous telomerase inactivated by heating (15 minutes, 75° C.). Products were amplified by 30 cycles of PCR under TRAP conditions set forth in Kim et al., Science 266:2011, […] (which reference is incorporated herein in its entirety) and quantified.

Primer Ext. Assay Notes: telomerase substrate / chain terminator (telomerase)	EC50 (telomerase)	EC50 (telomerase in HT3 cells)	Structure (SMILES)	further results
Chain terminator.	0.5 to 1.2 µM	–	CC(Cn1cnc2c(=O)[nH]c(N)nc21)OCP(=O)(O)OP(=O)(O)OP(=O)(O)O (single isomer, unassigned) [Compound 142692]	–
–	–	–	CC(C)OC(=O)OCOP(=O)(COC(C)Cn1cnc2c(=O)[nH]c(N)nc21)OCOC(=O)OC(C)C (single isomer, unassigned) [ID#142748, PMPG prodrug, S form]	IC50 (telomerase in HT3 cells; 0.2 μM to 20 μM, two independent experiments, read-out: Ex vivo Assay IC 50): > 20 µM
–	–	11.7 µM	CC(Cn1cnc2c(=O)[nH]c(N)nc21)OCP(=O)(O)O (single isomer, unassigned) [compound 142693]	–
–	–	1.2 µM and 3.1 µM	CC(C)OC(=O)OCOP(=O)(COC(C)Cn1cnc2c(=O)[nH]c(N)nc21)OCOC(=O)OC(C)C (single isomer, unassigned) [compound 142715]	–
Weak chain terminator.	–	–	C[C@@H](COCP(=O)(O)OP(=O)(O)OP(=O)(O)O)Cn1cnc2c(=O)[nH]c(N)nc21 (stereo in doubt) [Compound 142860]	–
Weak chain terminator.	–	–	CC(Cn1cnc2c(=O)[nH]c(N)nc21)OCP(=O)(O)OP(=O)(O)OP(=O)(O)O (stereo not drawn) [Compound 142751]	–
Weak chain terminator.	–	–	CC(Cn1cnc2c(=S)[nH]c(N)nc21)OCP(=O)(O)OP(=O)(O)OP(=O)(O)O (stereo not drawn) [Compound 142752]	–
Chain terminator	13.5 µM	–	CC(Cn1cnc2c(=S)[nH]c(N)nc21)OCP(=O)(O)OP(=O)(O)OP(=O)(O)O (stereo not drawn) [Compound 142761]	–
Chain Terminator.	1.4 µM	–	C=C(COCP(=O)(O)OP(=O)(O)OP(=O)(O)O)Cn1cnc2c(=O)[nH]c(N)nc21 [Compound 142810]	–
Weak chain terminator.	–	–	C[C@H](Cn1cnc2c(=O)[nH]c(N)nc21)SCP(=O)(O)OP(=O)(O)OP(=O)(O)O [Compound 142823]	–
Chain terminator.	4.4 µM	–	CC(COCP(=O)(O)OP(=O)(O)OP(=O)(O)O)Cn1cnc2c(=O)[nH]c(N)nc21 (stereo not drawn) [Compound 142846]	–
Chain terminator	1.5 µM	–	Nc1nc2c(ncn2CCCOCP(=O)(O)OP(=O)(O)OP(=O)(O)O)c(=O)[nH]1 [Compound 142848]	potency relative to PMPG (R-PMPGpp), times less potent (telomerase): ~2
Weak chain terminator.	–	–	Nc1nc2c(ncn2CC(OCP(=O)(O)OP(=O)(O)OP(=O)(O)O)C(F)(F)F)c(=O)[nH]1 (stereo not drawn) [Compound 142850]	–
Chain terminator.	7.5 µM	–	Nc1nc2c(ncn2CC(CF)OCP(=O)(O)OP(=O)(O)OP(=O)(O)O)c(=O)[nH]1 (stereo not drawn) [Compound 142856]	–
Chain terminator.	3.1 µM	–	CC(COCP(=O)(O)OP(=O)(O)OP(=O)(O)O)n1cnc2c(=O)[nH]c(N)nc21 (stereo not drawn) [Compound 142879]	–
Weak chain terminator.	–	–	CC(C)(Cn1cnc2c(=O)[nH]c(N)nc21)OCP(=O)(O)OP(=O)(O)OP(=O)(O)O [Compound 142891]	–
–	> 60 µM	–	C[C@H](CCn1cnc2c(=O)[nH]c(N)nc21)OCP(=O)(O)OP(=O)(O)OP(=O)(O)O [Compound 142915]	–
–	10 µM	–	CC[C@H](Cn1cnc2c(=O)[nH]c(N)nc21)OCP(=O)(O)OP(=O)(O)OP(=O)(O)O [Compound 142916]	–
–	–	–	C=C(COCP(=O)(O)OP(=O)(O)OP(=O)(O)O)Cn1cnc2c(=O)[nH]c(N)nc21 [ID#142810, PMIBeG, free acid]	potency relative to PMPG (R-PMPGpp), times less potent (telomerase): approximately two times less potent than R-PMPGpp
–	–	7.54 µM	CC(Cn1cnc2c(=S)[nH]c(N)nc21)OCP(=O)(O)O (stereo not drawn) [compound 142694]	–
–	–	2.6 µM	C=C(COCP(=O)(O)O)Cn1cnc2c(=O)[nH]c(N)nc21 [compound 142811]	–
–	–	5 µM	CC(Cn1cnc2c(=O)[nH]c(N)nc21)OCP(=O)(O)NCCCNCCCCN (stereo not drawn) [compound 142812]	–
–	–	6.7 µM	C=C(COCP(=O)(O)NCCCNCCCCN)Cn1cnc2c(=O)[nH]c(N)nc21 [compound 142873]	–
–	–	1.84 µM	CC(Cn1cnc2c(=O)[nH]c(N)nc21)OCP(=O)(O)NCCCNCCCCNCCCNP(=O)(O)COC(C)Cn1cnc2c(=O)[nH]c(N)nc21 (stereo not drawn) [compound 142942]	–
–	–	1.44 µM	CCCCCCCCCCNP(=O)(O)COC(C)Cn1cnc2c(=O)[nH]c(N)nc21 (stereo not drawn) [compound 142962]	–
